Measurements taken from US20250270199A1, “THIAZOLE DERIVATIVES AND METHODS OF USING THE SAME” (Arkansas State University - Jonesboro, priority 2022, published 2025).
≈ marks a conversion by molar mass, not a printed value. Where “and” joins values, the source holds several entries; their conditions need not be identical. Identical values can stand only once.

Key:
[1] = tested on: S. aureus ATCC 700699 (Sa 99); assay: MIC, broth microdilution, Sa 99; type: cell-based; conditions: replicates from different days separated by comma; for MIC: Staphylococcus aureus, ATCC700699, Table 1, HT series, read-out: Minimum inhibitory concentration (MIC) Sa 99; for Minimum inhibitory concentration (MIC) Sa 99: Table 1, HT series
Experimental: (§1) The broth microdilution method was utilized to determine MIC values of novel thiazole derivatives against different clinically important Gram-positive bacteria according to the guidelines outlined by the Clinical and Laboratory Standards Institute (CLSI) as reported in our recent papers.^1-5 The starting concentration of compounds for MIC determination was 64 μg/mL serially diluted down the wells and the MIC values were recorded in duplicates in three independent experiments on different days.

[2] = tested on: S. aureus ATCC 33592 (Sa 92); assay: MIC, broth microdilution, Sa 92; type: cell-based; conditions: Staphylococcus aureus, ATCC33592; Table 1, HT series; read-out: Minimum inhibitory concentration (MIC) Sa 92
Experimental: as §1

[3] = tested on: S. aureus ATCC 33591 (Sa 91); assay: MIC, broth microdilution, Sa 91; type: cell-based; conditions: Staphylococcus aureus, ATCC33591; Table 1, HT series; read-out: Minimum inhibitory concentration (MIC) Sa 91
Experimental: as §1

[4] = tested on: S. aureus ATCC 25923 (Sa 23); assay: MIC, broth microdilution, Sa 23; type: cell-based; conditions: replicates from different days separated by comma; for MIC: Staphylococcus aureus, ATCC25923, Table 1, HT series, read-out: Minimum inhibitory concentration (MIC) Sa 23; for Minimum inhibitory concentration (MIC) Sa 23: Table 1, HT series
Experimental: as §1

[5] = tested on: S. aureus ATCC BAA-2312 (Sa 12); assay: MIC, broth microdilution, Sa 12; type: cell-based; conditions: Staphylococcus aureus, ATCCBAA2312; Table 1, HT series; read-out: Minimum inhibitory concentration (MIC) Sa 12
Experimental: as §1

[6] = tested on: E. faecalis ATCC 29212 (Efs 12); assay: MIC, broth microdilution, Efs 12; type: cell-based; conditions: replicates from different days separated by comma; for MIC: Enterococcus faecalis, ATCC29212, Table 1, HT series, read-out: Minimum inhibitory concentration (MIC) Efs 12; for Minimum inhibitory concentration (MIC) Efs 12: Table 1, HT series
Experimental: as §1

[7] = tested on: Sa UAMS-1 MRSA ATCC 49230 (Sa UAMS); assay: MIC, broth microdilution, Sa UAMS; type: cell-based, S. aureus; conditions: Staphylococcus aureus; Table 1, HT series; read-out: Minimum inhibitory concentration (MIC) Sa UAMS
Experimental: as §1

[8] = tested on: S. aureus subsp. aureus Rosenbach ATCC 25904 (SA Newman); assay: MIC, broth microdilution, SA Newman; type: cell-based; conditions: Staphylococcus aureus; Table 1, HT series; read-out: Minimum inhibitory concentration (MIC) Sa Newman
Experimental: as §1

[9] = tested on: S. aureus LAC MRSA (Sa LAC); assay: MIC, broth microdilution, Sa LAC; type: cell-based; conditions: Staphylococcus aureus, Table 1, HT series, read-out: Minimum inhibitory concentration (MIC) Sa LAC
Experimental: as §1

Row | MIC [1] | Minimum inhibitory concentration (MIC) Sa 99 [1] | MIC [2] | MIC [3] | MIC [4] | Minimum inhibitory concentration (MIC) Sa 23 [4] | MIC [5] | MIC [6] | Minimum inhibitory concentration (MIC) Efs 12 [6] | MIC [7] | MIC [8] | MIC [9] | SMILES
1 | 4 µg/mL (≈ 13.2 µM) | 4, 4, 4 μg/mL | 8 µg/mL (≈ 26.3 µM) | 4 µg/mL (≈ 13.2 µM) | 2 µg/mL (≈ 6.58 µM) | 2, 2, 2 μg/mL | 8 µg/mL (≈ 26.3 µM) | 16 µg/mL (≈ 52.7 µM) | 8 µg/mL and 16 µg/mL | 8 µg/mL (≈ 26.3 µM) | 4 µg/mL (≈ 13.2 µM) | 8 µg/mL (≈ 26.3 µM) | Oc1ccc(-c2nc(-c3cccc(Cl)c3)cs2)cc1O [Compound 3, 4-(4-(3-chlorophenyl)thiazol-2-yl)benzene-1,2-diol]
2 | 32 µg/mL (≈ 119 µM) | 16 µg/mL (≈ 59.4 µM) | 16 µg/mL (≈ 59.4 µM) | 16 µg/mL (≈ 59.4 µM) | 8 µg/mL (≈ 29.7 µM) | 16 µg/mL (≈ 59.4 µM) | 32 µg/mL (≈ 119 µM) | > 32 µg/mL | >32, >32, >32 μg/mL | 32 µg/mL (≈ 119 µM) | 32 µg/mL (≈ 119 µM) | 32 µg/mL (≈ 119 µM) | Oc1ccc(-c2nc(-c3ccccc3)cs2)cc1O [Compound 2, 4-(4-phenylthiazol-2-yl)benzene-1,2-diol]
3 | 2 µg/mL (≈ 6.26 µM) | 2, 2, 2 μg/mL | 8 µg/mL (≈ 25 µM) | 8 µg/mL (≈ 25 µM) | 2 µg/mL (≈ 6.26 µM) | 2, 2, 2 μg/mL | 8 µg/mL (≈ 25 µM) | 16 µg/mL (≈ 50.1 µM) | 16, 16, 16 μg/mL | 8 µg/mL (≈ 25 µM) | 8 µg/mL (≈ 25 µM) | 4 µg/mL (≈ 12.5 µM) | Oc1ccc(-c2nc(-c3ccc4ccccc4c3)cs2)cc1O [Compound 14, 4-(4-(naphthalen-2-yl)thiazol-2-yl)benzene-1,2-diol]
4 | 16 µg/mL (≈ 56.1 µM) | 8 µg/mL (≈ 28 µM) | 32 µg/mL (≈ 112 µM) | 32 µg/mL (≈ 112 µM) | 16 µg/mL (≈ 56.1 µM) | 16, 16, 16 μg/mL | 16 µg/mL (≈ 56.1 µM) | > 32 µg/mL | >32, >32, >32 μg/mL | 32 µg/mL (≈ 112 µM) | 16 µg/mL (≈ 56.1 µM) | 16 µg/mL (≈ 56.1 µM) | Oc1ccc(-c2csc(-c3ccc(O)c(O)c3)n2)cc1 [Compound 8, 4-(4-(4-hydroxyphenyl)thiazol-2-yl)benzene-1,2-diol]
